# Lip = lipoyl residue of R or S configuration
# Assays:
# [1] = test system: IL-1α-induced IL-8 production; test: Inhibition of IL-1α-induced IL-8 production (ELISA) in normal human dermal fibroblasts; type: cell-based; details: concomitant with IL-1α for 24 hours
# glutathione = test: Glutathione regeneration in the presence of a superoxide anion by fluorometry (HRP/scopoletine); type: biochemical; details: glutathione 10^−4 to 5×10^−5 M with or without peptide 10^−4 to 5×10^−5 M, HRP 3 μg/ml, reading at 180 seconds
# Source text: Peroxydase (Horseradish peroxydase or HRP) transforms H2O2 into O2^•− which reacts on fluorescent scopoletine and transforms it into a non fluorescent species. A rapid decrease in fluorescence is observed as a function of O2^•− release. In the presence of a scavenger for radical O2^•− (such as glutathione), the decrease in fluorescence is less pronounced. (Antioxidant Characterisation, Methodology and Mechanism, Barry Halliwell, Biochemical Pharmacology, 49, 1341-1348, (1995)) and (The scopoletin assay for hydrogen peroxide, a review and a better method, Jean T. Corbett, J. Biochem. Biophys. Methods, 18, 297-308 (1989)).
# Material: A fluorometer set at 394 nm (excitation state) with a slot of 6, and 455 nm (emitting state) with a slot of 8 was used. Continuous data collection was made over a period of 180 seconds. The data obtained at the end of 180 seconds was compared to that obtained with a negative control (without scavenger) and that with a positive control (without free radicals).
# The tested mixture comprised HRP (3 μg/ml), scopoletine (5×10^−6M), glutathione (10^−4 to 5×10^−5M), with or without peptide B1 (10^−4 to 5×10^−5 M). An oxygenated water (H2O2) solution was added immediately before reading the first fluorescence measure.
# Results are presented in FIG. 3 and are expressed as the percentage of radical scavenging activity as compared to the positive control. […]
# normal human melanocytes = test: Comet test: internal photo protection against UVA- and UVB-induced DNA strand breaks; type: cell-based; details: peptide 3 × 10^−8 M, 2 h at 37° C., non treated cells 100%, irradiated cells 0%; for CGP (%) coefficient of genomic protection against UVA: then UVA 365 nm, 0.8 J/cm^2; for CGP (%) coefficient of genomic protection against UVB: then UVB 312 nm, 0.06 J/cm^2
# Protocol: The proto protective ability of peptides A1 and B1 against UVA and UVB was evaluated using a Comet test according to the protocol of De Meo (De Meo et al. Mutation Res. 1991; 260; 295-306).
# The comet test enables the quantification of DNA strand breaks induced by a genotoxic agent.
# Material: Primary culture of normal human melanocytes.
# Treatment: Cells were treated for 2 h at 37° C. with peptides A1 and B1 separately at 3×10^−8 M and then exposed to UVA (365 nm, 0.8 J/cm^2) or UVB (312 nm/0.06 J/cm^2).
# Results are reported in Table 1 below as a coefficient of genomic protection against UVA or UVB (CGP %).
# Keratinocytes NCTC-2544 = test: UVA-induced oxidative lesions (formation of 8-oxo D guanosine) in keratinocytes; type: cell-based, human; details: 24 h + 30 min re-stimulation, UVA 15 J/cm^2, UVA-irradiated cells 100%, non treated cells 0%
# Protocol: Material: Keratinocytes NCTC-2544.
# Treatment: Keratinocytes were incubated with either peptide (A1 or B1) for 24 h, re-stimulated with the same peptide for 30 minutes and then irradiated with UVA (15 J/cm^2).
# Results: The cells exposed to UVs are subjected to damages/lesions induced by oxidative stress. The oxydative damages or lesions were monitored with the formation of 8-oxo D guanosine and the effect of the peptides was expressed as a percentage of inhibition of the production of oxidative damages/lesions.
Substance,INHIBITION of IL-8 production ([1]; peptide 10 pM) [%],INHIBITION of IL-8 production ([1]; peptide 1 nM) [%],glutathione regeneration activity (radical scavenging activity compared to positive control) (glutathione),CGP (%) coefficient of genomic protection against UVA (normal human melanocytes) [%],CGP (%) coefficient of genomic protection against UVB (normal human melanocytes) [%],% INHIBITION of the production of oxidative damages/lesions (Keratinocytes NCTC-2544; peptide 1 nM) [%],% INHIBITION of the production of oxidative damages/lesions (Keratinocytes NCTC-2544; peptide 100 nM) [%]
Lip-His-DPhe-Arg-Trp-NH2 [Peptide B1],56,60,displayed a glutathione regeneration activity,69.9,85.8,−50,−76
Lip-Lys-Gly-His-Lys-NH2 (Lip-KGHK-NH2) [Peptide A1],,,,93,46.2,−27,−53
